The subject of the experiment is SARS-CoV-2 (Omicron variant, B.1.1.529/BA.2 sublineage). In words: microbe, parasite or virus in culture. The format is cell-based. The conditions noted are these: for EC50 / EC90: Severe acute respiratory syndrome coronavirus 2, Vero C1008, 48 h; for EC90: read-out: 90% Reduction in Infectious Virus (EC90); for time to maximal effectiveness against the Omicron variant particles: after starting administration and treatment.

The mark [1] stands for this setting: read-out: 50% Reduction in Infectious Virus (EC50).
The mark [2] stands for this setting: read-out: 50% Reduction in Viral RNA Copy (EC50).

Several values for one entry are separate records, joined by “and”; a condition that tells them apart may be missing. Identical values can stand only once. Like-named read-outs stand apart in the source and are kept apart here.

In the case of `CC(C)C(=O)OC[C@H]1O[C@@H](n2ccc(NO)nc2=O)[C@H](O)[C@@H]1O` [Molnupiravir, molnupiravir], the “100% CPE Inhibitory Concentration (CPEIC100)” value is 6.28 µM and 6.28 ± 0.28 µM; the EC90 (usually the concentration at which the effect reaches the 90% level) turned out to be 9.1 ± 0.31 µM. The EC50 (usually the concentration giving half of the maximal effect) under setting [1] is 2.61 ± 0.1 µM. The EC50 under setting [2] stood at 2.73 ± 0.11 µM.
For the molecule `CC(C)Nc1nc2cc(Cl)c(Cl)cc2n1[C@H]1O[C@@H](CO)[C@H](O)[C@@H]1O` [Maribavir, maribavir], the “100% CPE Inhibitory Concentration (CPEIC100)” value was 7.97 ± 0.27 µM and the EC90 worked out at 12.3 ± 0.33 µM. In addition, under setting [1], the EC50 is 3.05 ± 0.13 µM. Under setting [2], the EC50 was 3.2 ± 0.14 µM.
In the case of `O=c1[nH]cnc2c([C@@H]3N[C@H](CO)[C@@H](O)[C@H]3O)c[nH]c12` [Forodesine, forodesine], the “100% CPE Inhibitory Concentration (CPEIC100)” value came out at 1.69 ± 0.06 µM, the EC90 was 2.2 ± 0.06 µM and the “time to maximal effectiveness against the Omicron variant particles” value lay within 4 to 10 h. In addition, under setting [1], the EC50 was about 0.7 µM. Also, the EC50 under setting [2] was 0.73 ± 0.04 µM. The “100% CPE Inhibitory Concentration (CPEIC100)” value (listed as forodesine) was 1.69 µM.
For the molecule `COc1nc(N)nc2c1ncn2[C@@H]1O[C@H](CO)[C@@H](O)[C@@H]1O` [Nelarabine, nelarabine], the EC90 is 6.46 ± 0.18 µM. The EC50 under setting [1] was found to be 1.68 ± 0.08 µM. In addition, the EC50 under setting [2] was 1.75 ± 0.08 µM.
As to `CC(C)=CCNc1ncnc2c1ncn2[C@@H]1O[C@H](CO)[C@@H](O)[C@H]1O` [Riboprine, N^6-(2-Isopentenyl)adenosine], the “100% CPE Inhibitory Concentration (CPEIC100)” value was 1.21 µM and 1.21 ± 0.04 µM; the EC90 came out at 1.71 ± 0.05 µM; the “time to maximal effectiveness against the Omicron variant particles” value lay within 4 to 10 h. Further, under setting [1], the EC50 is about 0.45 µM. Also, the EC50 under setting [2] was 0.48 ± 0.03 µM.
As to `OC[C@H]1O[C@@H](n2cnc3c(N[C@@H]4CCOC4)ncnc32)[C@H](O)[C@@H]1O` [Tecadenoson, tecadenoson], the “100% CPE Inhibitory Concentration (CPEIC100)” value was 7.73 ± 0.23 µM and the EC90 is 11.9 ± 0.32 µM. Further, the EC50 under setting [1] stood at 2.9 ± 0.1 µM. Under setting [2], the EC50 was 2.95 ± 0.11 µM.
Take `CCC(CC)COC(=O)[C@H](C)N[P@](=O)(OC[C@H]1O[C@@](C#N)(c2ccc3c(N)ncnn23)[C@H](O)[C@@H]1O)Oc1ccccc1` [Remdesivir, remdesivir]: the “100% CPE Inhibitory Concentration (CPEIC100)” value is 5.99 µM and 5.99 ± 0.20 µM; the EC90 is 8.01 ± 0.29 µM. For the same molecule, the EC50 under setting [1] amounted to 2.07 ± 0.08 µM.
In the case of `Nc1ncnc2c1ncn2[C@@H]1O[C@H](CO)[C@@H](O)[C@@H]1O` [Vidarabine, Arabinosyladenine], the “100% CPE Inhibitory Concentration (CPEIC100)” value was 8.10 ± 0.25 µM and the EC90 came to 12.6 ± 0.35 µM. Moreover, the EC50 under setting [1] came to 3.2 ± 0.13 µM. Under setting [2], the EC50 worked out at 3.23 ± 0.13 µM.

The record behind these values is article PMC9797896 (Medicinal Chemistry Research, 2022).
